Assays:
[1] = Liver microsomal metabolism experiment (metabolic stability); assay type: in vitro ADME; conditions: pH 7.4; mouse liver microsomes 0.5 mg/mL, compound 1 μM
Experimental: Microsome assay: mouse liver microsomes: 0.5 mg/mL, Xenotech; coenzyme (NADPH/NADH): 1 mM, Sigma Life Science; magnesium chloride: 5 mM, 100 mM phosphate buffer (pH 7.4).
Preparation of stock solutions: Powder of the compounds were accurately weighed and dissolved in DMSO to 5 mM.
Preparation of phosphate buffer (100 mM, pH7.4): A pre-prepared 0.5M potassium dihydrogen phosphate (150 mL) was mixed with 0.5M dibasic potassium phosphate (700 mL). The pH of the mixture was adjusted to 7.4 with 0.5M dibasic potassium phosphate solution. The mixture was diluted 5-fold with ultrapure water before use, and magnesium chloride was added to obtain a phosphate buffer (100 mM) containing 100 mM potassium phosphate, 3.3 mM magnesium chloride, pH 7.4.
A NADPH regeneration system solution (containing 6.5 mM NADP, 16.5 mM G-6-P, 3 U/mL G-6-P D, 3.3 mM magnesium chloride) was prepared and placed on wet ice prior to use.
Preparation of stop solution: an acetonitrile solution containing 50 ng/mL propranolol hydrochloride and 200 ng/mL tolbutamide (internal standard). 25057.5 μL of phosphate buffer (pH 7.4) was taken into a 50 mL centrifuge tube, to which 812.5 μL mouse liver microsomes were added, and mixed to obtain a liver microsome dilution with a protein concentration of 0.625 mg/mL.
Incubation of the samples: The stock solutions of the respective compounds were respectively diluted to 0.25 mM with an aqueous solution containing 70% acetonitrile, and used as a working solution, ready for use. 398 μL of the dilution of human liver microsomes or rat mouse liver microsomes were added to 96-well incubation plates (N=2), respectively, and 2 μL of 0.25 mM working solution was added and mixed.
Metabolic stability assay: 300 μL of pre-chilled stop solution was added to each well of 96-well deep well plates and placed on ice as stop plates. The 96-well incubation plates and NADPH regeneration system were placed in a 37° C. water bath box, shaken at 100 rpm and pre-incubated for 5 min. 80 μL of incubation solution was taken out from each well of the incubation plates and added to the stop plates, mixed, and replenished with 20 μL of NADPH regeneration system solution as a 0-min sample. 80 μL of NADPH regeneration system solution was added to each well of the incubation plates to start the reaction and start counting. […] Separately, 100 μL of the reaction solutions was taken at 10, 30, and 90 min reaction, respectively, added to stop plates, and vortexed for 3 minutes to terminate the reaction. The stop plates were centrifuged at 5000×g at 4° C. for 10 min. 100 μL of the supernatant was added to a 96-well plate to which 100 μL of distilled water was previously added, mixed, and analyzed by LC-MS/MS.
Data analysis: The peak areas of the corresponding compounds and internal standard were detected by LC-MS/MS system, and the ratio of the peak area of the compounds to the internal standard was calculated.

[2] = Pharmacokinetic experiment in rats; assay type: in vivo, SD rat; conditions: male SD rats, i.g., 3 mg/kg; for AUC(0-t) / Cmax / MRT / Tmax: rat, plasma, po
Experimental: Experimental Objective: To investigate the pharmacokinetic behavior of the compounds of the present disclosure after the rats being administered with the test compounds.
Species and strain: SD rat grade: SPF grade
Gender and quantity: male, 6
Experimental procedures: Before blood samples were collected, 20 μL of 2 M sodium fluoride solution (esterase inhibitor) was previously added to an EDTA-K2 anticoagulant tube, dried in an 80° C. oven, and placed in a 4° C. refrigerator.
Rats (male, weighing 187 to 197 g) were randomly divided into 2 groups, and were fasted overnight in the afternoon before the experiment but were allowed to drink water freely. Food was given 4 hours after the administration. Group A was given Venetoclaxr (3 mg/kg), and group B was given example compounds 1 to 7 (3 mg/kg). About 100-200 μL of blood was taken from the orbital vein of rats at 15 min, 30 min, 1, 2, 3, 5, 8 and 10 h after administration, placed in a 0.5 mL Eppendorf tube with EDTA-K2 anticoagulant and mixed immediately. After anticoagulation, the tube was gently inverted 5-6 times as quickly as possible. After the blood was taken, it was placed in an ice box, and then within 30 min, the blood sample was centrifuged for 10 min at 4000 rpm and 4° C. to separate the plasma. Immediately after collection of all plasma, it was stored at −20° C. The concentration of the drug in plasma at each time point was determined after sample collection at all time points.

## [2H]C1([2H])N(CC2=C(c3ccc(Cl)cc3)CC(C)(C)CC2)C([2H])([2H])C([2H])([2H])N(c2ccc(C(=O)NS(=O)(=O)c3ccc(NCC4CCOCC4)c([N+](=O)[O-])c3)c(Oc3cnc4[nH]ccc4c3)c2)C1([2H])[2H] (single isomer, unassigned) [Compound T-5, 4-(4-{[2-(4-chlorophenyl)-4,4-dimethylcyclohex-1-en-1-yl]methyl}piperazin-1-yl-2,2,3,3,5,5,6,6-d8)-N-({3-nitro-4-[(tetrahydro-2H-pyran-4-ylmethyl)amino]phenyl}sulfonyl)-2-(1H-pyrrolo[2,3-b]pyridin-5-yloxy)benzamide]
[1]
  half-life at 1 μM: 1.52 h
  microsomal CLint at 1 μM: 15.2 µL/min/mg

## [2H]C([2H])(C1=C(c2ccc(Cl)cc2)CC(C)(C)CC1)N1CCN(c2ccc(C(=O)NS(=O)(=O)c3ccc(NCC4CCOCC4)c([N+](=O)[O-])c3)c(Oc3cnc4[nH]ccc4c3)c2)CC1 (single isomer, unassigned) [Compound T-1, 4-(4-{[2-(4-chlorophenyl)-4,4-dimethylcyclohex-1-en-1-yl]methyl-d2}piperazin-1-yl)-N-({3-nitro-4-[(tetrahydro-2H-pyran-4-ylmethyl)amino]phenyl}sulfonyl)-2-(1H-pyrrolo[2,3-b]pyridin-5-yloxy)benzamide]
[1]
  half-life at 1 μM: 4.07 h
  microsomal CLint at 1 μM: 5.7 µL/min/mg

## [2H]C([2H])(C1=C(c2ccc(Cl)cc2)CC(C)(C)CC1)N1C([2H])([2H])C([2H])([2H])N(c2ccc(C(=O)NS(=O)(=O)c3ccc(NCC4CCOCC4)c([N+](=O)[O-])c3)c(Oc3cnc4[nH]ccc4c3)c2)C([2H])([2H])C1([2H])[2H] (single isomer, unassigned) [Compound T-4, 4-(4-{[2-(4-chlorophenyl)-4,4-dimethylcyclohex-1-en-1-yl]-methyl-d2}piperazin-1-yl-2,2,3,3,5,5,6,6-d8)-N-({3-nitro-4-[(tetrahydro-2H-pyran-4-ylmethyl)amino]phenyl}sulfonyl)-2-(1H-pyrrolo[2,3-b]pyridin-5-yloxy)benzamide]
[1]
  half-life at 1 μM: 1.12 h
  microsomal CLint at 1 μM: 20.7 µL/min/mg

## CC1(C)CCC(CN2CCN(c3ccc(C(=O)NS(=O)(=O)c4ccc(NCC5CCOCC5)c([N+](=O)[O-])c4)c(Oc4cnc5[nH]ccc5c4)c3)CC2)=C(c2ccc(Cl)cc2)C1 [Venetoclax, 4-(4-{[2-(4-chlorophenyl)-4,4-dimethylcyclohex-1-en-1-yl]methyl}piperazin-1-yl)-N-({3-nitro-4-[(tetrahydro-2H-pyran-4-ylmethyl)amino]phenyl}sulfonyl)-2-(1H-pyrrolo[2,3-b]pyridin-5-yloxy)benzamide, reference compound]
[2]
  Cl—pred: 54.7 mL/min/kg
  F: 3.47%
  AUC(0-t): 3060 ng·h/mL
  Cmax: 478 ng/mL
  MRT: 5.22 h
  Tmax: 3.33 h
[1]
  half-life at 1 μM: 1.35 h
  microsomal CLint at 1 μM: 17.1 µL/min/mg

## [2H]C([2H])(Nc1ccc(S(=O)(=O)NC(=O)c2ccc(N3CCN(CC4=C(c5ccc(Cl)cc5)CC(C)(C)CC4)CC3)cc2Oc2cnc3[nH]ccc3c2)cc1[N+](=O)[O-])C1CCOCC1 (single isomer, unassigned) [Compound T-3, 4-(4-{[2-(4-chlorophenyl)-4,4-dimethylcyclohex-1-en-1-yl]methyl}piperazin-1-yl)-N-({3-nitro-4-[(tetrahydro-2H-pyran-4-ylmethyl-d2)amino]phenyl}sulfonyl)-2-(1H-pyrrolo[2,3-b]pyridin-5-yloxy)benzamide]
[2]
  Cl—pred: 40.2 mL/min/kg
  F: 7.10%
  AUC(0-t): 4430 ng·h/mL
  Cmax: 680 ng/mL
  MRT: 5.07 h
  Tmax: 3.33 h
[1]
  half-life at 1 μM: 1.25 h
  microsomal CLint at 1 μM: 18.4 µL/min/mg

## [2H]C([2H])(Nc1ccc(S(=O)(=O)NC(=O)c2ccc(N3CCN(C([2H])([2H])C4=C(c5ccc(Cl)cc5)CC(C)(C)CC4)CC3)cc2Oc2cnc3[nH]ccc3c2)cc1[N+](=O)[O-])C1CCOCC1 (single isomer, unassigned) [Compound T-2, 4-(4-{[2-(4-chlorophenyl)-4,4-dimethylcyclohex-1-en-1-yl]methyl-d2}piperazin-1-yl)-N-({3-nitro-4-[(tetrahydro-2H-pyran-4-ylmethyl-d2)amino]phenyl}sulfonyl)-2-(1H-pyrrolo[2,3-b]pyridin-5-yloxy)benzamide]
[1]
  half-life at 1 μM: 2.38 h
  microsomal CLint at 1 μM: 9.7 µL/min/mg

## [2H]C([2H])(Nc1ccc(S(=O)(=O)NC(=O)c2ccc(N3C([2H])([2H])C([2H])([2H])N(C([2H])([2H])C4=C(c5ccc(Cl)cc5)CC(C)(C)CC4)C([2H])([2H])C3([2H])[2H])cc2Oc2cnc3[nH]ccc3c2)cc1[N+](=O)[O-])C1CCOCC1 (single isomer, unassigned) [Compound T-7, 4-(4-{[2-(4-chlorophenyl)-4,4-dimethylcyclohex-1-en-1-yl]methyl-d2}piperazin-1-yl-2,2,3,3,5,5,6,6-d8)-N-({3-nitro-4-[(tetrahydro-2H-pyran-4-ylmethyl-d2)amino]phenyl}sulfonyl)-2-(1H-pyrrolo[2,3-b]pyridin-5-yloxy)benzamide]
[1]
  half-life at 1 μM: 5.11 h
  microsomal CLint at 1 μM: 4.5 µL/min/mg

## [2H]C([2H])(Nc1ccc(S(=O)(=O)NC(=O)c2ccc(N3C([2H])([2H])C([2H])([2H])N(CC4=C(c5ccc(Cl)cc5)CC(C)(C)CC4)C([2H])([2H])C3([2H])[2H])cc2Oc2cnc3[nH]ccc3c2)cc1[N+](=O)[O-])C1CCOCC1 (single isomer, unassigned) [Compound T-6, 4-(4-{[2-(4-chlorophenyl)-4,4-dimethylcyclohex-1-en-1-yl]methyl}piperazin-1-yl-2,2,3,3,5,5,6,6-d8)-N-({3-nitro-4-[(tetrahydro-2H-pyran-4-ylmethyl-d2)amino]phenyl}sulfonyl)-2-(1H-pyrrolo[2,3-b]pyridin-5-yloxy)benzamide]
[1]
  half-life at 1 μM: 1.3 h
  microsomal CLint at 1 μM: 17.8 µL/min/mg
